Measurements: patent US8962244B2, “Compounds for modulating RNA binding proteins and uses therefor” (University of Massachusetts, priority 2009, dated 2015)
Read-outs that look alike come from different tables or passages of the source.

Assays:
POS-1 = target: T1, POS-1 (Caenorhabditis elegans, UniProt G5EF15); assay: Fluorescence polarization screening of POS-1 binding to fluorescein-labeled BMF018 RNA; conditions: 192 μM test compound; score = polarization relative to no-drug and no-protein controls; 0.25 = 75% inhibition; lowest score = greatest inhibition; read-out: POS-1 score
T1 construct: 6-his tag (N); made in house; host or cells: E. coli BL21 (DE3) Gold
T1 sequence (G5EF15 80-180): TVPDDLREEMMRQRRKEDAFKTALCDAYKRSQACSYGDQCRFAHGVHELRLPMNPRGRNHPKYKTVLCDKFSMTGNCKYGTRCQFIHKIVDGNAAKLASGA

MEX-5 = target: T2, MEX-5 (Caenorhabditis elegans, UniProt Q9XUB2); assay: Fluorescence polarization screening of MEX-5 binding to fluorescein-labeled TCR2 RNA; conditions: read-out: MEX-5 score
T2 construct: The fragment of mex-5 containing the TZF domain (amino acids 236-350) was amplified; made in house; host or cells: Escherichia coli JM109
T2 sequence (Q9XUB2 236-350): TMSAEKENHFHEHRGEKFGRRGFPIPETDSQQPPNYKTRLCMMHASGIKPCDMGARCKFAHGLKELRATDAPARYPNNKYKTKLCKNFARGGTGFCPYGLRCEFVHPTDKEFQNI
Excerpt: The expression and purification of recombinant MEX-5 protein has previously been described in Pagano, J. M., Farley, B. M., McCoig, L. M. and Ryder, S. P. (2007) “Molecular basis of RNA recognition by the embryonic polarity determinant MEX-5;” J Biol Chem; 282, 8883-8894. The fragment of mex-5 containing the TZF domain (amino acids 236-350) was amplified from a commercially available ORFeome clone (Open Biosystems) and sub-cloned into the vector pMal-c (NEB), which encodes maltose binding protein as an N-terminal fusion. This construct is termed pMal-MEX-5 (236-350).
MEX-5 is expressed in Escherchia. coli JM109 liquid cultures grown at 37° C. Cultures were induced during mid log phase by the addition of 0.1 mM isopropyl 1-thio-β-D-galactopyranoside (IPTG) and allowed to grow for three hours. An amount of 100 μM zinc acetate (final concentration) was added at the time of induction. The pelleted cells were resuspended in lysis buffer (50 mM Tris pH 8.8, 200 mM NaCl, 2 mM DTT, EDTA free protease inhibitor tablet (Roche), 100 μM Zn(OAc)2) and lysed by sonication. The soluble protein was purified in three steps using standard chromatography methods: (1) amylose affinity (NEB), (2) Hi-TRAP-Q (GE Healthcare), and (3) Hi-TRAP-S (GE Healthcare). The Q buffer was composed of 50 mM Tris, pH 8.8, 20 mM-1500 mM NaCl, 2 mM DTT, and 100 μM Zn(OAc)2. The S buffer was composed of 50 mM MOPS, pH 6.0, 20 mM-1500 mM NaCl, 2 mM DTT, 100 μM Zn(OAc)2. The pure fractions, determined by coomassie-stained SDS-PAGE, were dialyzed into storage buffer (20 mM Tris, pH 8.0, 25 mM NaCl, 100 μM Zn(OAc)2, 2 mM DTT). The protein concentration was determined by measuring absorbance at 280 nm and the calculated extinction coefficient. The protein was stored at 50 μM concentration at 4° C.
All RNA oligonucleotides were chemically synthesized by Dharmacon or Integrated DNA Technologies. Upon arrival, each RNA was deprotected and stored according to the manufacturer's instructions. Prior to use, the RNA was resuspended in 10 mM Tris-HCl, pH 8.0, 0.1 mM EDTA, and the concentration determined by UV spectrophotometry using the calculated extinction coefficient at 260 nm based on the specific sequence. The sequence of the MEX-5 binding RNA (TCR2) is […] (SEQ ID NO:1). The POS-1 binding RNA (BMF018) is […] (SEQ ID NO:2). The MEX-3 binding RNA (SEQ 14) is […] (SEQ ID NO:3).
The RNA used for the small molecule screen was labeled at the 3′-end with fluorescein by Dharmacon during synthesis. In a few cases, follow up experiments were performed with post-synthetically labeled RNA. In this case, fluorescein 5-thiosemicarbazide (FTSC, Invitrogen) was used to 3′-end label each RNA after treatment with sodium periodate (see Reines, S. A. and Cantor, C. R. (1974) “New fluorescent hydrazide reagents for the oxidized 3′-terminus of RNA” Nucleic Acids Res. 1, 767-786). A representative 50 μl reaction consisted of 0.5 nanomoles RNA, 100 mM NaOAc, pH 5.1, and 5 nanomoles NaIO4. After the reaction was complete (90 minutes at room temperature), the sample was ethanol precipitated by adding 1 μl RNase free glycogen (Invitrogen 20 μg/μl), 1/20th volume of 5 M NaCl, and 2 volumes of 100% ice-cold ethanol. The resulting pellet was resuspended in 50 μl of 100 mM NaOAc, pH 5.1 containing 1 mM FTSC and was allowed to react overnight at 4° C. in the dark. The unreacted label was removed by ethanol precipitation with resuspension of the pellet in a small volume of TE, and purification over a Roche G-25 size exclusion spin column. The labeling efficiency is determined by calculating the ratio of fluorescein absorbance at 490 nm to RNA-fluorescein absorbance at 260 nm. Typical efficiencies are 60-80%.
The ability of MEX-5 to associate with RNA was monitored by fluorescence polarization using a victor V3 or victor V2V plate reader (Perkin Elmer) in 384-well FluoTrak microplates (Grenier). […]

[1] = 192 μM test compound, score = polarization relative to no-drug and no-protein controls, 0.25 = 75% inhibition, lowest score = greatest inhibition

remaining activity at 192 µM (MEX-5; [1]) [%]	SMILES	other results
6.21	O=[N+]([O-])c1cc(CN2CCOCC2)c2cccnc2c1O [U]	–
25.5	CC(=O)Nc1nc(N2C(=O)c3ccccc3C2=O)n(-c2ccccc2)n1 [CV]	–
3.52	Sc1nnc(-c2cccs2)n1-c1ccccc1 [R]	–
24.1	O=C(NC(=S)N(Cc1ccccc1)Cc1ccccc1)c1ccc(Br)o1 [CP]	–
25.2	C=CCn1c(S)nnc1CCc1ccc(OC(C)C)cc1 [CS]	–
25.3	CCc1cc(-c2n[nH]c(C)c2-c2nc3ccccc3s2)c(O)cc1OC [CU]	–
3.51	CCOC(=O)C(=O)Nc1nnc(Cc2ccc(Cl)cc2)s1 [Q]	–
2.09	CCOC(=O)Cc1nnc(NC(=O)c2ncn[nH]2)s1 [N]	–
25.2	Sc1nnc(SCc2ccccc2Cl)s1 [CT]	–
24.7	CCOC(=O)C(=O)Nc1nnc(C(C)(C)C)s1 [CR]	–
6.69	O=[N+]([O-])c1cccc(S(=O)(=O)Nc2cc(Cl)c(O)c3ccccc23)c1 [X]	–
23.5	Fc1ccc(-n2c(S)nnc2-c2cccs2)cc1 [CL]	–
23.9	Cc1ccccc1OCc1nnc(S)n1C [CN]	–
6.26	O=S(=O)(Nc1cc(Cl)c(O)c2ccccc12)c1cccs1 [V]	–
23.6	CC(C)Oc1ccc(Cc2nnc(S)n2-c2ccccc2)cc1Cl [CM]	–

More lines, now with the values behind:

SMILES	remaining activity at 192 µM (MEX-5; [1]) [%]	other results
Cc1cc(NS(=O)(=O)c2ccc(Nc3nc(-c4ccc(F)c(C)c4)cs3)cc2)no1 [EN]	–	remaining activity at 192 µM (POS-1): 24.7%
CCOC(=O)c1c(NC(=O)C2CC=CCC2C(=O)O)sc(C)c1-c1ccc(Cl)cc1 (stereo not shown) [EA]	–	remaining activity at 192 µM (POS-1): 20.3%
CCOc1ccc(C(=O)NC(=S)Nc2ccccc2C(=O)O)cc1Br [DO]	–	remaining activity at 192 µM (POS-1): 16.7%
COc1cc(-c2nnc(S)n2-c2ccc(C)cc2C)cc(OC)c1OC [CF]	22.9	–
COc1cc(/C=C2\C(=O)N(c3cccc(C(=O)O)c3)N=C2C)ccc1OC(=O)c1ccco1 [DX]	–	remaining activity at 192 µM (POS-1): 19.7%
Cc1ccc(C)c(OCC(=O)Nc2ccc(S(=O)(=O)Nc3nccs3)cc2)c1C [DW]	–	remaining activity at 192 µM (POS-1): 19%
CCOC(=O)c1c[nH]c2nc3ccccc3n2c1=O [AM]	10.5	–
CCOC(=O)N1CCN(C(=S)Nc2ccc3nc(-c4ccccn4)c(-c4ccccn4)nc3c2)CC1 [BZ]	21.4	–
O=[N+]([O-])c1cc(CN2CCC(c3ccccc3)C2)c(O)c2ncccc12 (stereo not shown) [BX]	21.2	–
CCCC(=O)NC(c1ccc(Cl)cc1)c1cc([N+](=O)[O-])c2cccnc2c1O (stereo not shown) [EU]	–	remaining activity at 192 µM (POS-1): 26.6%
O=C(NC(=S)Nc1ccc(C(=O)O)c(Cl)c1)c1ccc(Cl)c(Cl)c1 [DZ]	–	remaining activity at 192 µM (POS-1): 20.1%
CCOC(=O)c1ccc(N2NC(=O)/C(=C/c3cccc(OC(=O)c4cccs4)c3)C2=O)cc1 [DL]	–	remaining activity at 192 µM (POS-1): 14.3%
O=[N+]([O-])c1cc(C2Nc3ccc4ccccc4c3C3C=CCC32)ccc1O (stereo not shown) [DE]	–	remaining activity at 192 µM (POS-1): 8.86%
O=c1[nH]c(=S)[nH]c2sc3c(c12)CCCCCCCCCC3 [CJ]	23.4	–
CCCCC(=O)Nc1cccc(NC(=S)NC(=O)C(C)C)c1 [BT]	20.2	–
CCOC(=O)c1ccc(N2NC(=O)/C(=C/c3ccc(OC(=O)c4cccs4)c(OC)c3)C2=O)cc1 [EW]	–	remaining activity at 192 µM (POS-1): 27.5%
COc1ccc(OCCn2c(NC(C)=O)nc3ccccc32)cc1 [BC]	15.5	–
Cc1cc(C)nc(NS(=O)(=O)c2ccc(Nc3nc(-c4ccc(O)c(O)c4)cs3)cc2)n1 [AC]	7.58	–
Cn1c(-c2cc(Br)ccc2O)n[nH]c1=S [AN]	10.5	–
O=C(CSc1nnc2c(n1)[nH]c1ccccc12)Nc1ccc(S(=O)(=O)Nc2nccs2)cc1 [CI]	23.2	–
Cc1ccc2c(Cl)c(C(=O)Nc3nnn[nH]3)sc2c1 [EL]	–	remaining activity at 192 µM (POS-1): 23.8%
Cc1cc(NS(=O)(=O)c2ccc(NC(=O)c3ccc(C(C)(C)C)c(Br)c3)cc2)no1 [DP]	–	remaining activity at 192 µM (POS-1): 16.8%
Cc1ccc(-n2c(-c3ccco3)n[nH]c2=S)cc1 [AS]	13.1	–

SMILES	remaining activity at 192 µM (MEX-5; [1]) [%]	other results
CCC(=O)NC(c1ccc(OC)c(OC)c1)c1cc([N+](=O)[O-])c2cccnc2c1O (stereo not shown) [AG]	8.62	–
Cc1cc([N+](=O)[O-])ccc1NC(=O)c1cnccn1 [BG]	17.2	–
CCCc1nnc(NC(=O)c2cccc(C(=O)Nc3nnc(CCC)s3)n2)s1 [AK]	10.2	–
Cc1ccccc1Cn1c(S)nc2ccccc21 [AX]	14.1	–
Cc1ccc(-c2cc(C(=O)Nc3ccccc3Cl)c3ccccc3n2)o1 [BW]	21.2	–
COc1ccc(C(=O)NC(=S)Nc2cc(C)cc(C)c2)cc1Cl [BN]	18.9	–
O=C(Nc1nc2n(n1)C(c1ccccc1)C=C(c1ccccc1)N2)c1ccc([N+](=O)[O-])cc1 (stereo not shown) [BH]	17.6	–
COc1ccc(C(=O)Nc2nc(N3C(=O)c4ccccc4C3=O)n(-c3ccccc3)n2)cc1 [BE]	16.1	–
O=[N+]([O-])c1cccc(S(=O)(=O)Nc2cc(Br)c(O)c3ccccc23)c1 [AJ]	9.23	–
Cc1ccc(C(=O)Nc2nc(-c3ccccc3)c(-c3ccccc3)o2)cc1 [CC]	22.5	–
CCCn1c(NC(=S)Nc2ccccc2)nc2ccccc21 [CH]	23.1	–
Cc1ccc(S(=O)(=O)Nc2nc(N3C(=O)c4ccccc4C3=O)n(-c3ccccc3)n2)cc1 [AT]	13.2	–
CC(=O)Oc1ccc2c(C)cc(=O)oc2c1OC(C)=O [CQ]	–	remaining activity at 192 µM (MEX-5): 24.5%
O=C(NC(=S)N(Cc1ccccc1)Cc1ccccc1)c1ccc([N+](=O)[O-])cc1 [CK]	23.4	–
COc1ccc(OCc2nnc(S)n2-c2ccccc2)cc1 [CE]	22.7	–
Oc1ccccc1-c1n[nH]c(=S)n1-c1ccccc1 [BM]	18.8	–
Sc1nnc(CCc2ccccc2)n1-c1ccccc1 [BD]	15.5	–
S=C(Nc1ccccc1)Nc1nc2ccccc2n1Cc1ccccc1 [AR]	12.9	–
CCc1ccc(-n2c(-c3cc(Cl)ccc3OC)n[nH]c2=S)cc1 [CG]	23	–
Sc1nnc(COc2cccc(Br)c2)n1-c1ccccc1 [BB]	15.4	–
CCCCn1c(NC(=S)Nc2ccccc2)nc2ccccc21 [AW]	14.1	–
O=C(Nc1nc2ccccc2s1)c1cccc(C(=O)Nc2nc3ccccc3s2)n1 [AP]	12.2	–
Sc1nnc(-c2cccs2)n1CCc1ccccc1 [BQ]	19.5	–
